The values that follow come from article PMC12663137 (Nature Communications, 2025).

For assay [1], the system named is SV2A WT, W300A, W666A, D670A. In words: Displacement of 10 nM 3H-UCB-J by levetiracetam, binding site mutations (Fig. 2B). Particulars: Fig. 2B. Details: species or system human. How it is done: (§1) Membranes were prepared either from transiently transfected cells or from baculovirus-infected cells as described previously. Cells were washed with DPBS (Ca^2+ and Mg^2+ free), followed by resuspending in cold SH buffer (10 mM HEPES-Tris pH 7.4, 320 mM sucrose) containing protease inhibitor cocktail (MedChemExpress) to a density of 10^7 cells/ml. This cell suspension was homogenized by passing through a bead homogenizer (Isobiotec) with 10-micron clearance bead on ice. The lysate was then centrifuged at 4000 × g for 5 min at 4 °C, and the supernatant was aliquoted, frozen in liquid nitrogen, and stored at −80 °C. The mVenus fluorescence estimated using fluorescence size-exclusion chromatography (FSEC) was used to normalize expression levels of mVenus-SV2A mutants studied as detailed previously. For all binding studies, membranes containing […] protein (estimated by BCA method) per reaction were used.
(§2) To obtain dose-response curves of studied SV2A ligands, membranes diluted in 0.2 ml binding buffer (50 mM Tris-Cl, pH 7.4, and 2 mM MgCl2) were incubated with indicated concentrations of ligands for 30 min at 4 °C. […] The binding reaction was arrested by trapping membranes on Unifilter-GF/C 96-well filter plates (Revvity) pre-soaked with 0.1%(w/v) polyethyleneimine (PEI). Membranes were then washed four times with 0.2 ml of cold binding buffer, dried, and 40 µl of scintillation liquid was added to each well. Radioactivity was monitored in MicroBeta2 plate counter (Revvity). Estimates for IC50 were obtained from fitting the data to three-parameter dose-response curves using GraphPad Prism 10.

For assay [2], the target named is T1, SV2A WT, W300A, W666A, D670A (Homo sapiens, UniProt Q7L0J3).
T1 construct: expressed in transfected cells; host or cells: HEK293 (ATCC CRL-1573), crude membranes
T1 sequence (Q7L0J3 whole entry W300A/W666A/D670A): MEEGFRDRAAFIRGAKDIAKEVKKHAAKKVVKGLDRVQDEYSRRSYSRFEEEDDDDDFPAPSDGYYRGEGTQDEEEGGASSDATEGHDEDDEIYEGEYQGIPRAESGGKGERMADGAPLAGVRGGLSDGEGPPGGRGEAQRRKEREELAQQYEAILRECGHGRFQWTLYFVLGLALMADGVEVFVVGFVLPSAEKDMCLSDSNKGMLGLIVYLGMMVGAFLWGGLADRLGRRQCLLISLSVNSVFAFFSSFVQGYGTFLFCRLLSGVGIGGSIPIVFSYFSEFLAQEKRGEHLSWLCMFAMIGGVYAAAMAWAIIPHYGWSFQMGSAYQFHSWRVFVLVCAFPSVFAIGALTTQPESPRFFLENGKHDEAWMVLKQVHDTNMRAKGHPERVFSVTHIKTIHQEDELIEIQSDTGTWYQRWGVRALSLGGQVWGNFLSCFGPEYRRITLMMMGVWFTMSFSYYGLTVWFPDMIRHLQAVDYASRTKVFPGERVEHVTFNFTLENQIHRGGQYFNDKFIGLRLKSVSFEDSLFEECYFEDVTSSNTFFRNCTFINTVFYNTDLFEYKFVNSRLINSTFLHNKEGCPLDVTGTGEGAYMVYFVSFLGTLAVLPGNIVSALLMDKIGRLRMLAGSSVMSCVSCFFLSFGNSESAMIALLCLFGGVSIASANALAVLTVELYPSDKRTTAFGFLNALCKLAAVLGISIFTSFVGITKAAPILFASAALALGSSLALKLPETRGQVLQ
The description is as above. The following applies: read-out: Binding of 3H-UCB-J (%), WT. As for the experimental part:
as §1, §2

In the next assay the target is T2, SV2AWT (Homo sapiens, UniProt Q7L0J3).
T2 construct: expressed in transfected cells; host or cells: HEK293 (ATCC CRL-1573), crude membranes
T2 sequence (Q7L0J3 whole entry): as the sequence (Q7L0J3 whole entry W300A/W666A/D670A) above, with A300W, A666W, A670D counted along it
The assay can be described thus: Competitive displacement of 10 nM 3H-UCB-J, SV2AWT membranes (Fig. 1A). In kind it is binding. Particulars: read-out: Binding of 3H-UCB-J (%), SV2A_WT. As for the experimental part:
as §1, with “Ligand binding studies were carried out using crude membranes prepared from HEK293 cells (ATCC, CRL-1573) overexpressing mVenus-SV2AWT or SV2AEM. Membranes” for “Membranes”
as §2

In a further assay the target is T3, SV2AEM (Homo sapiens, UniProt Q7L0J3).
T3 construct: expressed in transfected cells; host or cells: HEK293 (ATCC CRL-1573), crude membranes (transient transfection or baculovirus)
T3 sequence (Q7L0J3 141-742): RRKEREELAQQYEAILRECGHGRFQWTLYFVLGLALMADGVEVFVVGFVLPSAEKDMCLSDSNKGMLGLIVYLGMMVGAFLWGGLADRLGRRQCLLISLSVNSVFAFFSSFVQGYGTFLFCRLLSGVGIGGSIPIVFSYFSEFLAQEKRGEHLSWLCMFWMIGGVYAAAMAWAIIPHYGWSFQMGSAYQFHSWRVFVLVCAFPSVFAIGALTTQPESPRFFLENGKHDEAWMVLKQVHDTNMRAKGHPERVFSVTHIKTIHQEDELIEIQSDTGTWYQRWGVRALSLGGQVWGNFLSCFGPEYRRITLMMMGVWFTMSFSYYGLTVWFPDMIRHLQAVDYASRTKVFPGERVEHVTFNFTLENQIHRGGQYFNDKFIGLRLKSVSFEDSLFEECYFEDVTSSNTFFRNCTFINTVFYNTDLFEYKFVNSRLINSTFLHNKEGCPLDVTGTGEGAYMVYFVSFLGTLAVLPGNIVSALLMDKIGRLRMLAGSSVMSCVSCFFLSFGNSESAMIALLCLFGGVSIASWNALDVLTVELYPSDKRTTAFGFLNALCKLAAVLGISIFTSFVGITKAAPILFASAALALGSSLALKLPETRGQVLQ
The assay can be described thus: Competitive displacement of 10 nM 3H-UCB-J, SV2AEM membranes (Fig. 1A). The assay is classed as binding. As for the experimental part:
as §1, with “Ligand binding studies were carried out using crude membranes prepared from HEK293 cells (ATCC, CRL-1573) overexpressing mVenus-SV2AWT or SV2AEM. Membranes” for “Membranes”
as §2

Assay [3] addresses T4, SV2A WT and mutants (Homo sapiens, UniProt Q7L0J3, N690A).
T4 construct: expressed in transfected cells; host or cells: HEK293 (ATCC CRL-1573), crude membranes
The assay can be described thus: Relative binding of levetiracetam: 3H-UCB-J (10 nM) binding in presence of 10 µM levetiracetam (Fig. 2C). Particulars: N690A. How it is done: (§3) Data are shown as mean ± s.d.; n = 6 biological replicates. […] Data shown as mean ± s.d.; n = 6 biological replicates. D Superposition of SV2A-apo (gray) and SV2A–Lev (green), showing helix-to-loop transition and inward movement of TM1 in levetiracetam-bound state. […] Source data for (B, C) are provided as a Source data file.
as §1, with “Ligand binding studies were carried out using crude membranes prepared from HEK293 cells (ATCC, CRL-1573) overexpressing mVenus-SV2AWT or SV2AEM. Membranes” for “Membranes”

Assay [4] deals with T5, SV2A WT and mutants (Homo sapiens, UniProt Q7L0J3, C693A).
T5 construct: expressed in transfected cells; host or cells: HEK293 (ATCC CRL-1573), crude membranes
T5 sequence (Q7L0J3 whole entry C693A): as the sequence (Q7L0J3 whole entry W300A/W666A/D670A) above, with A300W, A666W, A670D, C693A counted along it
The description is as above. The following applies: C693A; 10 µM levetiracetam; SV2AWT defined as 100%. As for the experimental part: as §3
as §1, with “Ligand binding studies were carried out using crude membranes prepared from HEK293 cells (ATCC, CRL-1573) overexpressing mVenus-SV2AWT or SV2AEM. Membranes” for “Membranes”

Assay [5] addresses T6, SV2A WT and mutants (Homo sapiens, UniProt Q7L0J3).
T6 construct: expressed in transfected cells; host or cells: HEK293 (ATCC CRL-1573), crude membranes
Described as above. The following applies: WT; 10 µM levetiracetam; SV2AWT defined as 100%. As for the experimental part:
as §3
as §1, with “Ligand binding studies were carried out using crude membranes prepared from HEK293 cells (ATCC, CRL-1573) overexpressing mVenus-SV2AWT or SV2AEM. Membranes” for “Membranes”

Values joined by “and” are separate entries in the source; they are usually repeats but may differ in a detail not shown here. Equal values may be shown once.

T6 sequence (Q7L0J3 whole entry, change not shown): as the sequence (Q7L0J3 whole entry W300A/W666A/D670A) above, with A300W, A666W, A670D counted along it
T4 sequence (Q7L0J3 whole entry N690A): as the sequence (Q7L0J3 whole entry W300A/W666A/D670A) above, with A300W, A666W, A670D, N690A counted along it

What is called IC50 is the concentration needed to halve the response being measured. A low value points to higher potency. Regarding `CC[C@@H](C(N)=O)N1CCCC1=O` [levetiracetam], the “reduction of levetiracetam binding by mutating Trp300, Trp666, Asp670” value in assay [1] is recorded as about 1000 fold. Besides, in assay [2] (Log [Levetiracetam] (M) -3.000), the 3H-UCB-J binding at 1000 µM turned out to be 6.22%. Besides, in assay [2] (Log [Levetiracetam] (M) -4.000), the 3H-UCB-J binding at 100 µM was 31.9%. Further, the 3H-UCB-J binding at 3 µM in assay [2] (Log [Levetiracetam] (M) -5.523) worked out at 73.5%. Also, the 3H-UCB-J binding at 1 µM in assay [2] (Log [Levetiracetam] (M) -6.000) came to 84.4%. Also, at SV2AWT (Log [Levetiracetam] (M) -3.523), the remaining activity at 300 µM was found to be 10.8%. Moreover, the remaining activity at 100 µM on SV2AWT (Log [Levetiracetam] (M) -4.000) was found to be 22.8%. Moreover, the remaining activity at 10 µM at SV2AWT (Log [Levetiracetam] (M) -5.000) came to 66.1%; at SV2AEM (read-out: Binding of 3H-UCB-J (%), SV2A_EM, Log [Levetiracetam] (M) -5.000) it was 53.7%. Also, the remaining activity at 1 µM at SV2AWT (Log [Levetiracetam] (M) -6.000) was determined as 95%. Also, the remaining activity at 0.1 µM at SV2AWT (Log [Levetiracetam] (M) -7.000) was determined as 95.2%. For the same compound, at SV2AWT (Log [Levetiracetam] (M) -8.000), the remaining activity at 0.01 µM is 92.5%. This compound registered an IC50 on SV2AEM of 9.5 µM. The “binding response of SV2AEM vs wild-type SV2A” value on SV2AEM (competition with 3H-UCB-J) is listed as “comparable to those of wild-type SV2A”. Also, the “effect of mutation on levetiracetam binding” value at SV2A WT and mutants [3] is reported as “enhances levetiracetam binding”. Besides, the “Levetiracetam Binding (%)” value is 143.32% and 133.74% and 159.43% and 149.90% and 155.36% and 156.86% on SV2A WT and mutants [3] (10 µM levetiracetam, SV2AWT defined as 100%); 135.59% and 126.18% and 71.93% and 77.61% and 128.23% and 117.60% at SV2A WT and mutants [4]; 102.09% and 117.44% and 93.09% and 74.67% and 113.64% and 99.03% on SV2A WT and mutants [5].
